Assay [1] has as its system primary cervical cells. In words: Association and invasion assays, primary cervical cells (cell type not specified). The class given is cell-based, human. The note with it: for effect on gonococcal association, invasion or CR3 cell surface recruitment: negative controls: 200 nM 4-α phorbol, 3 mM hydrogen peroxide; for intracellular survival of PLD mutant gonococci: 100 μM pervanadate or 200 nM PMA. On the procedure: The anti-PLD antibody was screened for specificity to PLD using assays well-known to the art.
8. N. gonorrhoeae Attachment to and Invasion of Primary, Human, Cervical Cells. Primary cervical cell monolayers were infected with wild-type or PLD mutant gonococci as outlined above. Variable concentrations of Streptomyces spp. PLD (SsPLD) (Sigma), PMA, or 4-α phorbol were included in association (adherence and invasion) or invasion assays, as noted. Cervical cells were preincubated (30 minutes, 37° C.) with 200 nM PMA or 4-α phorbol before the addition of gonococci. 10 units ml^−1 SsPLD was added simultaneously with gonococci. Alternatively, where noted, cervical cell monolayers were pre-incubated (30 minutes, 37° C.) with pervanadate, which was made by mixing 100 μM ortho-sodium vanadate in 3 mM hydrogen peroxide. In separate assays, infection supernatants were collected from wild-type or PLD mutant-infected cervical cell monolayers, gonococci were removed by filtration through a 0.22 μm syringe filter (i.e., wild-type or mutant primed supernatants) and were added to association and/or invasion assays, as noted. The ability of gonococci to adhere to and/or invade pex and pen cells was quantitatively determined using standard gentimicin-resistance assays, performed as described previously (Edwards et al., 2000), and in which chemical or protein additives were included or excluded from the invasion assay as described above. The total association (i.e., adherence and invasion) of gonococci with pex and pen cells was quantitated by the omission of gentimicin from the above described invasion assay. Percent invasion of N. gonorrhoeae 1291 or 1291ΔPLDin the presence or absence of experimental additives was determined as a function of the original inoculum and the number of colonies formed with subsequent plating of the cellular lysate. A Kruskal-Wallis non-parametric analysis of variance was used to determine the statistical significance of the association and invasion assays described above.

Assay [2] deals with primary ectocervical cells. In words: Gentamycin-resistance invasion assay of N. gonorrhoeae 1291 with inhibitors of cytoskeletal motility and protein synthesis, ectocervical cells. As to conditions: both cell types (endo- and ectocervical). The assay is classed as cell-based, human. As to the method:
Invasion Assays in the Presence of Inhibitors of Cytoskeletal Motility and Protein Synthesis: Cervical cells were passed to 12 mm collagen-coated coverslips as outlined above. Prior to infection with N. gonorrhoeae 1291 wild-type cells, primary cell cultures were left untreated, or they were pre-incubated with 300 nM wortmannin (Sigma), 1 μM cytochalasin D (Sigma), or 400 mM ethylene glycol bis-(2-aminoethyl ether)-N,N, N′, N′ tetraacetic acid ((EGTA) Amresco, Solon, Ohio) for 2 h, 30 min, and 30 min, respectively, or they were pretreated with 100 µg/ml nocodazole (Calbiochem-Novabiochem Corp., La Jolla, Calif.) for 1 h at 4° C. followed by a 30 min incubation at 37° C. The requirement for de novo protein synthesis, either by the bacteria or by the primary cervical cells, was tested by pretreatment (30 min, 37° C.) of the bacterial cultures or cervical cell monolayers with 4 μg/ml chloramphenicol (Sigma) or 25 μM cycloheximide (Calbiochem-Novabiochem Corp.), respectively. All chemical reagents used were maintained in the infection medium throughout the course of the infection. […] Infection was allowed to progress at 37° C., 5% CO2, for 1.5 h after which the medium was removed, the cells were rinsed with PBS, and then incubated with KGM-2 containing 100 μg/ml gentamycin to kill extracellular bacteria. Post incubation the cervical cells were lysed with 0.5% saponin to release invasive bacteria. Percent invasion was determined as a function of the original inoculum and the number of colonies formed with subsequent plating of the cellular lysate. A Kruskal-Wallace ANOVA was used to determine the statistical significance of the calculated percent invasion for each of the cytoskeletal motility inhibitors used with respect to the untreated, infected cell cultures.

Assay [3] concerns PLD. The experiment in a line: PLD activity (Amplex Red Phospholipase D Assay Kit) in gonococci, infected cervical cell lysates, fractions and supernatants. The assay is classed as biochemical, N. gonorrhoeae. As to the method:
(§1) 4. Determination of PLD Activity. PLD activity was accessed using the Amplex™ Red Phospholipase D Assay Kit (Molecular Probes, Eugene Oreg.). Wild-type and PLD mutant gonococci were suspended in PLD assay buffer to a final concentration of 10^7 bacteria ml^−1, and activity was determined according to the manufacturer's protocol. Assessment of PLD activity at acidic pH was determined in a two-step assay according to the manufacturer's protocol. For the first step, 10^8 gonococci were suspended in PBS with the pH adjusted to 3.0, 4.5, or 6.0. Gonococcal suspensions were diluted 10-fold in PLD assay buffer for the second step of the reaction. Cervical cell fractions were prepared as outlined below and PLD activity was assessed at neutral pH according to the manufacturer's protocol.
5. Fractionation of Primary Cervical Cells. Uninfected (control) and infected cervical cell monolayers were lysed in buffer A (50 mM tris, pH 7.5; 10 mM NaCl, 1 mM KCl; 2 mM MgCl2, 1 mM PMSF) by scraping cervical cells from tissue culture dishes placed on ice. The cell lysate was sonicated (two bursts of 20 seconds each). Cell debris and the nuclear fraction was removed by centrifugation (750×g, 10 minutes), and the supernatant from this spin was then subjected to filtration through a low-protein binding 0.22 μm syringe filter to ensure removal of gonococci. Alternatively, gonococci were removed by immunoprecipitation (as described by Wen et al., 2000) using the monoclonal antibody, 2C3, which recognizes the H.8 outer membrane protein of the pathogenic Neisseria. Sucrose was added to the resulting gonococcus-depleted supernatant (S1) to a final concentration of 300 mM. Ultracentrifugation (150,000×g, 90 minutes) was then performed to produce the plasma membrane-(pellet) and cytosol (supernatant 2, S2)-enriched fractions. The membrane-enriched fraction was resuspended in PLD assay buffer (50 mM Tris, 5 mM CaCl2, pH 8.0). S2 was concentrated by filtration through Centricon YM-30 centrifugal filter units (Millipore) after which cytosolic constituents were recovered in PLD assay buffer. Where indicated, prior to infection studies primary pex and pen cell monolayers were treated with 300 nM wortmannin (Sigma) (2 hours, 37° C.) or 1 μM cytochalasin D (Sigma) (30 minutes, 37° C.) to inhibit macropinocytosis of gonococci. Wortmannin and cytochalasin D were maintained in cervical cell cultures during the course of infection.
as §1, with “Determination of” for “4. Determination of”, “Assessment of gonococcal PLD activity” for “Assessment of PLD activity”
Fractionation of Primary Cervical Cells. Uninfected (control) and infected cervical cell monolayers were lysed in buffer A (50 mM tris, pH 7.5; 10 mM NaCl, 1 mM KCl; 2 mM MgCl2, 1 mM PMSF) by scraping cervical cells from tissue culture dishes placed on ice. The cell lysate was sonicated (two bursts of 20 seconds each). […] Sucrose was added to the resulting gonococcus-depleted supernatant (S1) to a final concentration of 300 mM. Ultracentrifugation (150,000×g, 90 minutes) was then performed to produce the plasma membrane-(pellet) and cytosol (supernatant 2, S2)-enriched fractions. The membrane-enriched fraction was resuspended in PLD assay buffer (50 mM Tris, 5 mM CaCl2, pH 8.0). […]

Assay [4] relates to CR3. In words: CR3 surface expression on primary cervical cells (ELISA with H5A4). The class given is cell-based, human. The note with it: for CR3 recruitment to the cervical cell surface: PLD mutant infected cells, 100 μM pervanadate or 200 nM PMA; for CR3 surface level expression: uninfected cervical cells. As to the method: As described hereinbelow, primary cervical cells were seeded in 96-well microtiter plates to comparatively quantitate surface level expression of CR3. In the procedure, cells were (i) uninfected; (ii) challenged with wild-type gonococci; (iii) challenged with PLD-mutant gonococci; and/or (iv) challenged with filtered, primed (see infra) wild-type or PLD-mutant gonococcal supernatants. After removal of the infection supernatant, cell monolayers were rinsed, fixed and subsequently labeled with an antibody (anti-CD11b antibody H5A4; Hildreth and August, 1985) specific for the CR3 I-domain subunit followed by an HRP antibody-conjugate (commercially available from Kirkegaard & Perry Laboratories, Gaithersburg, Md.) using standard ELISA protocols. Absorbance of the o-phenylenediamine dihydrochloride peroxidase substrate was determined spectrophotometrically at 490 nm (FIG. 15).
7. Determination of CR3 Surface Expression on Primary Cervical Cells. Pex and pen cells were passed to 96-well microtiter plates and allowed to grow to confluence. Cervical cells were then challenged with wild-type or PLD mutant gonococci after which the infection medium was removed and cells were rinsed thrice with PBS. Cells were fixed with 2% paraformaldehyde. Prior to immuno-analysis of CR3 surface level expression, cells were again rinsed with PBS. Immunoassays were then performed according to standard ELISA protocols using the H5A4 anti-CD11b (i.e., CR3) primary and peroxidase-conjugated secondary antibodies. Absorbance of the o-phenylenediamine dihydrochloride peroxidase substrate was determined spectrophotometrically at 490 nm. Primary antibody was omitted from one well, and the secondary antibody was omitted from a second well, which served as a control for endogenous peroxidase activity. Where indicated 200 nM phorbol myristate (PMA), 200 nM 4-α phorbol, 100 μM pervanadate, 3 mM hydrogen peroxide, or gonococci-depleted supernatants collected from wild-type or PLD mutant infection studies were included in the infection studies as outlined below.
Determination of CR3 Surface Expression on Primary Cervical Cells. Pex and pen cells were passed to 96-well microtiter plates and allowed to grow to confluence. Cervical cells were then challenged with wild-type or PLD mutant gonococci after which the infection medium was removed and cells were rinsed thrice with PBS. Cells were fixed with 2% paraformaldehyde. Prior to immuno-analysis of CR3 surface level expression, cells were again rinsed with PBS. Immunoassays were then performed according to standard ELISA protocols using the H5A4 anti-CD11b (i.e., CR3) primary and peroxidase-conjugated secondary antibodies. Absorbance of the o-phenylenediamine dihydrochloride peroxidase substrate was determined spectrophotometrically at 495 nm. […]

For the molecule `CC1=C[C@H]2[C@@]3(O)[C@H](C)[C@@H](O)[C@]4(O)[C@H]([C@@H]3C=C(CO)C[C@@]2(O)C1=O)C4(C)C` [4-α-phorbol], the “effect on gonococcal association, invasion or CR3 cell surface recruitment” value in assay [1] is “had no affect”.

Turning to `C=C1[C@@H](C)[C@H]2[C@H](Cc3ccccc3)NC(=O)[C@]23[C@H](OC(C)=O)/C=C/[C@@](C)(O)C(=O)[C@@H](C)C/C=C/[C@H]3[C@@H]1O` [Cytochalasin D, cytochalasin D], the “effect on bacterial entry / gonococcal invasion” value in assay [2] is recorded as “prohibited bacterial entry”. Also, the “PLD Activity in Ectocervical Cell Fractions [Mean (variance)]” value in assay [3] (Cytosolic fraction, 1291ΔPLD infected w/ inhibitor (300 nM wortmannin or 1 μM cytochalasin D)) is 0.330 (0.07) Fluorescence Units; in assay [3] (Cytosolic fraction, Uninfected w/ inhibitor (300 nM wortmannin or 1 μM cytochalasin D)) it was 0.395 (0.03) Fluorescence Units; in assay [3] (Cytosolic fraction, WT 1291 infected w/ inhibitor (300 nM wortmannin or 1 μM cytochalasin D)), 0.462 ((0.03) Fluorescence Units; in assay [3] (Membrane fraction, 1291ΔPLD infected w/ inhibitor (300 nM wortmannin or 1 μM cytochalasin D)), 0.393 (0.01) Fluorescence Units; in assay [3] (Membrane fraction, Uninfected w/ inhibitor (300 nM wortmannin or 1 μM cytochalasin D)) it was 0.389 (0.01) Fluorescence Units; in assay [3] (Membrane fraction, WT 1291 infected w/ inhibitor (300 nM wortmannin or 1 μM cytochalasin D)), 0.436 (0.03) Fluorescence Units.

Consider `OO` [H2O2, hydrogen peroxide], for which the “effect on gonococcal association, invasion or CR3 cell surface recruitment” value in assay [1] is reported as “No effect was observed”. Also, in assay [3] (No cervical cells), the “PLD activity (Table 3, untitled)” value is reported as 0.961. The “Mean PLD activity, No Cells” value in assay [3] (gonococci alone and assay control (Table 7B, C)) is reported as 0.885. In assay [3] (positive control), the “PLD activity, Assay Controls (Table 4C)” value was determined as 0.781. In addition, the “PLD activity, Assay Controls, mean” value in assay [3] (positive control (Table 8A)) was determined as 1.557.

On to `CCCCCCCCCCCCCC(=O)O[C@@H]1[C@@H](C)[C@@]2(O)[C@@H](C=C(CO)C[C@]3(O)C(=O)C(C)=C[C@@H]23)[C@@H]2C(C)(C)[C@]12OC(C)=O` [PMA, phorbol myristate], for which, in assay [1], the “intracellular survival of PLD mutant gonococci” value is on record as “partially restored intracellular survival”. Besides, in assay [4], the “CR3 recruitment to the cervical cell surface” value is “rescued CR3 recruitment” and the “CR3 surface level expression” value is “increased CR3 surface level expression”.

In the case of pervanadate, the “intracellular survival of PLD mutant gonococci” value in assay [1] is reported as “not sufficient to allow the intracellular survival”. In assay [4], the “CR3 recruitment to the cervical cell surface” value is on record as “rescues CR3 recruitment” and the “CR3 surface level expression” value is “does not stimulate CR3 surface recruitment”.

For the origin of these results see patent US7261901B2, “Vaccine and compositions for the prevention and treatment of neisserial infections” (University of Iowa Research Foundation, priority 2001, dated 2007).
